Experimental findings from article PMC10600247, “Impact of C- and N-terminal protection on the stability, metal chelation and antimicrobial properties of calcitermin” (Scientific Reports, 2023) are described below.

A short description of this data set: Potentiometry: protonation of the ligand. It counts as physicochemical. As to conditions: T = 298 K, I = 0.1 M (KCl). An excerpt:
Stability constants for proton and metal complexes were obtained from pH-metric titration curves registered at T = 298 K and ionic strength 0.1 M (KCl). The potentiometric apparatus was previously described. Solutions were titrated with 0.1 M carbonate-free KOH. The electrode was daily calibrated for hydrogen ion concentration by titrating HNO3 with the standard base solution, under the same experimental conditions as above. The asymmetry potential and the slope of the electrode couple were computed by means of […][41] and Glee[42] programs. The purities and exact concentrations of the ligand solutions were determined by the Gran method. The […][44] program was employed for the overall formation constant (β) calculations, referred to the following equilibrium equation: pM + qL + rH ⇆ MpLqHr (charges omitted; p is 0 in the case of ligand protonation; r can be negative). The computed standard deviations (referring to random errors only) were given by the program itself and are shown in parentheses as uncertainties on the last significant figure. Hydrolysis constants for metal ions were taken from the literature[45],[46]. The distribution and competition diagrams were computed using the HYSS program.
1. Wild-type calcitermin: thermodynamic data
Wild-type calcitermin (WT) has been previously investigated by our research group in aqueous solutions and ionic medium NaClO4.1 For the sake of comparison, potentiometric studies of WT and its copper and zinc complexes have been performed in a different ionic medium (KCl 0.1 M). The study of the speciation under different experimental conditions, changing ionic medium and metal-ligand ratio, is essential to comprehensively describe the thermodynamics of calcitermin, which is usually found in multicomponent media like biological fluids.
Table S1. Equilibrium constants for protonation of WT and its Cu2+ and Zn2+ complex formation at T = 298 K and I = 0.1 M (KCl). Values in parentheses are standard deviations on the last significant figure.

Residues, ends and D or L forms follow the SMILES beside them.

`CC[C@H](C)[C@H](NC(=O)[C@H](C)NC(=O)[C@@H](N)C(C)C)C(=O)N[C@@H](C)C(=O)N[C@@H](CC(C)C)C(=O)N[C@@H](CCCCN)C(=O)N[C@@H](C)C(=O)N[C@@H](C)C(=O)N[C@@H](Cc1c[nH]cn1)C(=O)N[C@@H](Cc1ccc(O)cc1)C(=O)N[C@@H](Cc1c[nH]cn1)C(=O)N[C@H](C(=O)N[C@@H](Cc1c[nH]cn1)C(=O)N[C@@H](CCCCN)C(=O)N[C@@H](CCC(=O)O)C(=O)O)[C@@H](C)O` [WT, VAIALKAAHYHTHKE, reference compound] (H-VAIALKAAHYHTHKE-OH): the “protonation logK H2L” value worked out at 10.53, the “protonation logK H3L” value was determined as 9.50, the “protonation logK H4L” value is 7.73 and the “protonation logK H5L” value was found to be 6.93. For the same molecule, the “protonation logK H6L” value worked out at 6.33, the “protonation logK H7L” value came out at 5.65, the “protonation logK H8L” value is reported as 4.22 and the “protonation logK H9L” value worked out at 2.93. For the same molecule, the “protonation logK HL” value is recorded as 10.61, the “protonation logβ H2L” value was 21.14(2), the “protonation logβ H3L” value was 30.64(4) and the “protonation logβ H4L” value is given as 38.38(4). In addition, the “protonation logβ H5L” value was 45.31(4), the “protonation logβ H6L” value was 51.64(4), the “protonation logβ H7L” value was 57.29(4) and the “protonation logβ H8L” value was 61.51(4). The “protonation logβ H9L” value was 64.44(5) and the “protonation logβ HL” value was 10.61(6).
